Format in all cases: cell-based
Test [1] has as its system NFκB, IFN, or TLR4 signaling pathways. In words: Reporter cell lines treated with peptides alone (no activating molecule). The note with it: various concentrations, 12, 24 and 48 hours. As for the experimental part: To investigate the ability of the peptides to interfere with the NFkB, IFN, and TLR4 pathways, reporter cell lines were used. To analyze whether the isolated peptides (without activation molecules) could induce any type of activation, the isolated peptides were tested in the cell lines during 12, 24, and 48 hours of treatment. […] As an example, FIGS. 2A, 2B, and 2C show an analysis of NFkB expression after stimulation with the synthesized peptides described in this report. The cells were treated with the synthesized peptides Pep 1, Pep 2, Pep 3, and Pep 4 at various concentrations for 12, 24, and 48 hours, without activating molecules. Luciferase was then measured after 12 hours of treatment (FIG. 2A), 24 hours of treatment (FIG. 2B), and 48 hours of treatment (FIG. 2C). […] TNF-α (200 ng/mL) was used as a positive control.

The subject of test [2] is NFκB. Briefly: NFkB expression in Jurkart-Dual reporter cells, peptide pre-treatment then TNF-α. The note with it: peptide 1 hour, then TNF-α 200 ng/ml; all concentrations tested; 12, 24 and 48 hours. As for the experimental part: The assay was then performed using TNF-α as the activating molecule not only in the control, but after a pre-treatment with the synthesized peptides Pep 1, Pep 2, Pep 3, and Pep 4 at various concentrations. […] In the assays shown in FIGS. 3 A, B, and C, NFkB expression analysis was performed in Jurkart-Dual reporter cells. Cells were treated with peptides for 1 hour and TNF-α (200 ng/ml) was added. Luciferase was measured after 12 hours of treatment (FIG. 3A), 24 hours of treatment (FIG. 3B), and 48 hours of treatment (FIG. 3C).

In test [3] the test system is Dendritic cells from mice bone marrow. Briefly: Co-stimulatory molecules on bone marrow dendritic cells. The note with it: CD11c+ dendritic cells, 24 hours. As for the experimental part: Dendritic cells from mice bone marrow were isolated to analyze the effect of synthesized peptides Pep 1, Pep 2, Pep 3, and Pep 4 at two concentrations, 1 μM, and 10 μM, on reducing cell activation. […] In the assays, CD11c+CD86 cells (FIG. 8A) and CD11c+CD40+ cells (FIG. 8B) were used after 24 hours of treatment. LPS (100 ng/mL) was used as a positive control. * P<0.05; ** P<0.005.

Positions of bridges follow the written chain, without caps; N, C: chain ends. No end group written: not given here.

Take “Pep 1: synthetic peptide with affinity to the Interleukin-10 receptor, SEQ ID No 01, with disulfide bridges (HACSAVIKSSCGGGS; disulfide 3-11 (inferred))”: in test [1], the “NFkB expression (luciferase)” value is given as “unable to elicit any response”. For the same substance, in test [2], the NFκB activation result is “able to decrease NFκB activation”. For the same substance, the “expression of CD86+” value in test [3] (1 μM) and in test [3] (10 μM) was “decreased the expression of CD86+” in each case.
